Laboratory results reported in patent publication US8722683B2, “Benzodioxole piperazine compounds” (Hoffmann LA-Roche Inc., priority 2011, dated 2014).
Read-outs that look alike come from different tables or passages of the source.

How the values were obtained:
5-HT2A receptor = 5-HT2A receptor (Homo sapiens (Human), UniProt P28223); assay: Radioligand binding ([3H]-ketanserin) to cloned 5-HT2A receptor expressed in HEK-293 EBNA cells
Procedure: (§1) HEK293 EBNA cells were transiently transfected with expression plasmids encoding for the human D2 or D3 or for the human 5-HT2A receptor, respectively. The cells were harvested 48 h post-transfection, washed three times with cold PBS and stored at −80° C. prior to use. The pellet was suspended in cold 50 mM Tris-HCl buffer containing 10 mM EDTA (pH 7.4) and was homogenized with a Polytron (Kinematica AG, Basel, Switzerland) for 20-30 sec at 12.000 rpm. After centrifugation at 48.000×g for 30 min at 4° C., the pellet was resuspended in cold 10 mM Tris-HCl buffer containing 0.1 mM EDTA (pH 7.4), homogenized, and centrifuged as above. This pellet was further resuspended in a smaller volume of ice cold 10 mM Tris-HCl buffer containing 0.1 mM EDTA (pH 7.4) and homogenized with a Polytron for 20-30 sec at 12.000 rpm. The protein content of this homogenate was determined with the Bio-Rad (Bradford) Protein Assay (Biorad Laboratories GmbH, München, Germany) according to the instructions of the manufacturer using gamma globulin as the standard. This homogenate was stored at −80° C. in aliquots and thawed immediately prior to use.
(§2) Radioligand Binding Assay
(§3) Aliquots of membrane preparations were thawed at RT, resupended in assay buffer (D2, D3: 50 mM Tris-HCl, 120 mM NaCl, 5 mM MgCl2, 1 mM EDTA, 5 mM KCl, 1.5 mM CaCl2, pH=7.4; 5-HT2A: 50 mM Tris-HCl, 10 mM MgCl2, 1 mM EGTA, pH=7.4), homogenized with a Polytron for 20-30 sec at 12.000 rpm and adjusted to a final concentration of approximately 7.5 μg protein/well (D2, D3) and 15 μg protein/well (5-HT2A), respectively.
(§4) The binding affinity (Ki) of the compounds was determined using radioligand binding. […] The nonspecific binding was determined with equally composed reaction mixtures in the presence of 10 μM unlabelled spiperone. Per well 45 μl of Microscint 40 (Perkin Elmer, Schwerzenbach, Switzerland) was added, plates for sealed, shaken for 20 min and counted for 3 min on a Topcount Microplate Scintillation Counter (Canberra Packard SA, Zürich, Switzerland) with quenching correction.
(§5) The CPM value for each duplicate of a concentration of competing compound was averaged (y1), then the % specific binding was calculated according to the equation (((y1−non-specific)/(total binding−non-specific))×100). Graphs were plotted with the % specific binding using XLfit, a curve fitting program that iteratively plots the data using Levenberg-Marquardt algorithm. The single site competition analysis equation used was y=A+((B−A)/(1+((x/C)D))), where y is the % specific binding, A is the minimum y, B is the maximum y, C is the IC50, x is the log 10 of the concentration of the competing compound and D is the slope of the curve (the Hill Coefficient). […] The affinity constant (Ki) was calculated using the Cheng-Prusoff equation Ki=(IC50/1+([L]/Kd), where [L] is the concentration of radioligand and Kd is the dissociation constant of the radioligand at the receptor as determined by the saturation isotherm.

D2 receptor = D2 receptor (Homo sapiens (Human), UniProt P14416); assay: Radioligand binding ([3H]-spiperone) to cloned D2 receptor expressed in HEK-293 EBNA cells; settings: HEK293 EBNA membranes, 0.7 nM [3H]-spiperone
Sequence of D2 receptor (P14416 whole entry): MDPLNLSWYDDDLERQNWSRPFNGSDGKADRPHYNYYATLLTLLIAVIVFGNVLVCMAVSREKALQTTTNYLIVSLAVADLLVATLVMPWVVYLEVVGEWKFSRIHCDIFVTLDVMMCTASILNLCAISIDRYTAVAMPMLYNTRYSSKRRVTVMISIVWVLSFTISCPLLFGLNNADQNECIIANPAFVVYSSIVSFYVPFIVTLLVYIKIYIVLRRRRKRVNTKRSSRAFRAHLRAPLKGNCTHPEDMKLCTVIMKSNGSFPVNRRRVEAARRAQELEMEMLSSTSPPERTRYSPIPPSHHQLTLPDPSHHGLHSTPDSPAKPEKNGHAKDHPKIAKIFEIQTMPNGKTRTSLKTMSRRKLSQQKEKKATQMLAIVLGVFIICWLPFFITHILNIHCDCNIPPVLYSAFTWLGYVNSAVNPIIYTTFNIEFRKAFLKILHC
Procedure: as §1, §2, §3, §4, §5

D3 receptor = D3 receptor (Homo sapiens (Human), UniProt P35462); assay: Radioligand binding ([3H]-spiperone) to cloned D3 receptor expressed in HEK-293 EBNA cells; settings: HEK293 EBNA membranes, 0.5 nM [3H]-spiperone
Sequence of D3 receptor (P35462 whole entry): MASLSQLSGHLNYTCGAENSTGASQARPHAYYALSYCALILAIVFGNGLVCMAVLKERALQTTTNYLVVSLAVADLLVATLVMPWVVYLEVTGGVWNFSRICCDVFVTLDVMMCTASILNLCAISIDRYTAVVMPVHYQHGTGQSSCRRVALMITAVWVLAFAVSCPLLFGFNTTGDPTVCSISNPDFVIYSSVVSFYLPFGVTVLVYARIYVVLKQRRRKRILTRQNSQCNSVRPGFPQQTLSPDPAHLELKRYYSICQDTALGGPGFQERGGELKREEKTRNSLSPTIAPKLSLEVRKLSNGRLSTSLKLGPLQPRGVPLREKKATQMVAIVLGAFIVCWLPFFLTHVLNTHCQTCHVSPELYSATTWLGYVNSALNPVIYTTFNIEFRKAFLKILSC
Procedure: as §1, §2, §3
The binding affinity (Ki) of the compounds was determined using radioligand binding. […] At the end of the incubation, the reaction mixtures were filtered on to unifilter 96-well white microplates with bonded GF/C filters (Packard BioScience, Zürich, Switzerland; preincubated for 1 h in 0.1% polyethylenimine (PEI) in assay buffer) with a Filtermate 196 harvester (Packard BioScience) and washed 3 times with cold assay buffer. The nonspecific binding was determined with equally composed reaction mixtures in the presence of 10 μM unlabelled spiperone. Per well 45 μl of Microscint 40 (Perkin Elmer, Schwerzenbach, Switzerland) was added, plates for sealed, shaken for 20 min and counted for 3 min on a Topcount Microplate Scintillation Counter (Canberra Packard SA, Zürich, Switzerland) with quenching correction.
as §5

[1] = human 5-HT2A receptor, HEK293 EBNA membranes, 1.1 nM [3H]-ketanserin

Sequence of 5-HT2A receptor (P28223 whole entry): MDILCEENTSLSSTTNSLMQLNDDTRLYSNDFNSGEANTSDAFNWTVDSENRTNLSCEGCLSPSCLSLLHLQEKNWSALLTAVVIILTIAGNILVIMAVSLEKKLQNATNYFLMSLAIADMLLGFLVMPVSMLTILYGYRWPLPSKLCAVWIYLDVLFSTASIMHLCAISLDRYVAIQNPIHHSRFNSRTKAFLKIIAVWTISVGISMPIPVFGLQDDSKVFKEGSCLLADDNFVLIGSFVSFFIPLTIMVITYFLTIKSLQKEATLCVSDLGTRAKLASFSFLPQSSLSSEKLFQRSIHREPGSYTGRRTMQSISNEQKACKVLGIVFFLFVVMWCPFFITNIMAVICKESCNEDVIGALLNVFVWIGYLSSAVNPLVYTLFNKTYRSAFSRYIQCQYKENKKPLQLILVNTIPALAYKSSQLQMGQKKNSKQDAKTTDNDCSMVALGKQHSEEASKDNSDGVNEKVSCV

| SMILES | Ki (5-HT2A receptor; [1]) [µM] | Ki (D2 receptor) [µM] | Ki (5-HT2A receptor) [µM] | Ki (D3 receptor) [µM] |
| --- | --- | --- | --- | --- |
| O=C(C[C@H]1COCCO1)N[C@H]1CC[C@H](CCN2CCN(c3cccc4c3OCO4)CC2)CC1 (single isomer, unassigned) [Example 4, Trans-N-{4-[2-(4-Benzo[1,3]dioxol-4-yl-piperazin-1-yl)-ethyl]-cyclohexyl}-2-(S) or (R)[1,4]dioxan-2-yl-acetamide] | 0.00778 | – | – | – |
| O=C(C[C@@H]1COCCO1)N[C@H]1CC[C@H](CCN2CCN(c3cccc4c3OCO4)CC2)CC1 (single isomer, unassigned) [Example 5, Trans-N-{4-[2-(4-Benzo[1,3]dioxol-4-yl-piperazin-1-yl)-ethyl]-cyclohexyl}-2-(R) or (S)-[1,4]dioxan-2-yl-acetamide] | 0.0123 | – | – | – |
| O=C(C[C@@H]1CCCOC1)N[C@H]1CC[C@H](CCN2CCN(c3cccc4c3OCO4)CC2)CC1 (single isomer, unassigned) [Example 32, Trans-N-{4-[2-(4-Benzo[1,3]dioxol-4-yl-piperazin-1-yl)-ethyl]-cyclohexyl}-2-(S) or (R)-tetrahydro-pyran-3-yl-acetamide] | 0.0262 | 0.137 | – | – |
| O=C(C[C@H]1CCCOC1)N[C@H]1CC[C@H](CCN2CCN(c3cccc4c3OCO4)CC2)CC1 (single isomer, unassigned) [Example 33, Trans-N-{4-[2-(4-Benzo[1,3]dioxol-4-yl-piperazin-1-yl)-ethyl]-cyclohexyl}-2-(R) or (S)-tetrahydro-pyran-3-yl-acetamide] | 0.0244 | 0.184 | – | – |
| O=C(CC1COCCO1)N[C@H]1CC[C@H](CCN2CCN(c3cccc4c3OCO4)CC2)CC1 (stereo partly drawn) [Example 3, Trans-N-{4-[2-(4-Benzo[1,3]dioxol-4-yl-piperazin-1-yl)-ethyl]-cyclohexyl}-2-[1,4]dioxan-2-yl-acetamide] | – | 0.198 | 0.0118 | – |
| O=C(N[C@H]1CC[C@H](CCN2CCN(c3cccc4c3OCO4)CC2)CC1)C1CC1(F)F (stereo partly drawn) [Example 20, Trans-2,2-Difluoro-cyclopropanecarboxylic acid {4-[2-(4-benzo[1,3]dioxol-4-yl-piperazin-1-yl)-ethyl]-cyclohexyl}-amide] | – | 0.144 | 0.0268 | 0.00255 |
| COC(C)CC(=O)N[C@H]1CC[C@H](CCN2CCN(c3cccc4c3OCO4)CC2)CC1 (stereo partly drawn) [Example 21, Trans-N-{4-[2-(4-Benzo[1,3]dioxol-4-yl-piperazin-1-yl)-ethyl]-cyclohexyl}-3-methoxy-butyramide] | – | 0.181 | 0.0243 | 0.00276 |
| CCC(O)C(=O)N[C@H]1CC[C@H](CCN2CCN(c3cccc4c3OCO4)CC2)CC1 (stereo partly drawn) [Example 38, Trans-N-{4-[2-(4-Benzo[1,3]dioxol-4-yl-piperazin-1-yl)-ethyl]-cyclohexyl}-2-hydroxy-butyramide] | – | 0.122 | 0.0258 | 0.0125 |
| CO[C@H](C(=O)N[C@H]1CC[C@H](CCN2CCN(c3cccc4c3OCO4)CC2)CC1)C(C)C [Example 65, (S)-trans-N-{4-[2-(4-Benzo[1,3]dioxol-4-yl-piperazin-1-yl)-ethyl]-cyclohexyl}-2-methoxy-3-methyl-butyramide] | – | 0.112 | – | 0.0199 |
| O=S(=O)(CC(F)(F)F)N[C@H]1CC[C@H](CCN2CCN(c3cccc4c3OCO4)CC2)CC1 [Example 66, 2,2,2-Trifluoro-ethanesulfonic acid-trans-N-{4-[2-(4-benzo[1,3]dioxol-4-yl-piperazin-1-yl)-ethyl]-cyclohexyl}-amide] | – | 0.0738 | – | 0.00188 |
| O=S(=O)(N[C@H]1CC[C@H](CCN2CCN(c3cccc4c3OCO4)CC2)CC1)c1ccc(F)cc1 [Example 68, N-trans-{4-[2-(4-Benzo[1,3]dioxol-4-yl-piperazin-1-yl)-ethyl]-cyclohexyl}-4-fluoro-benzenesulfonamide] | – | 0.0462 | – | 0.0022 |
| O=C(N[C@H]1CC[C@H](CCN2CCN(c3cccc4c3OCO4)CC2)CC1)C(F)(F)F [Example 70, N-trans-{4-[2-(4-Benzo[1,3]dioxol-4-yl-piperazin-1-yl)-ethyl]-cyclohexyl}-2,2,2-trifluoro-acetamide] | – | 0.113 | – | 0.00491 |
| O=C(N[C@H]1CC[C@H](CCN2CCN(c3cccc4c3OCO4)CC2)CC1)N1CCc2ccccc21 [Example 71, 2,3-Dihydro-indole-1-carboxylic acid-trans-N-{4-[2-(4-benzo[1,3]dioxol-4-yl-piperazin-1-yl)-ethyl]-cyclohexyl}-amide] | – | 0.241 | – | 0.00201 |
| CN(C)C(=O)N[C@H]1CC[C@H](CCN2CCN(c3cccc4c3OCO4)CC2)CC1 [Example 72, N-trans-3-{4-[2-(4-Benzo[1,3]dioxol-4-yl-piperazin-1-yl)-ethyl]-cyclohexyl}-1,1-dimethyl-urea] | – | 0.0304 | – | 0.0112 |
| O=C(C[C@H]1C[C@H](CO)C1)N[C@H]1CC[C@H](CCN2CCN(c3cccc4c3OCO4)CC2)CC1 [Example 74, N-trans-{4-[2-(4-Benzo[1,3]dioxol-4-yl-piperazin-1-yl)-ethyl]-cyclohexyl}-2-(3-hydroxymethyl-cyclobutyl)-acetamide] | – | 0.117 | – | 0.00244 |
| O=C(Nc1ccc(Cl)cc1)N[C@H]1CC[C@H](CCN2CCN(c3cccc4c3OCO4)CC2)CC1 [Example 75, N-trans-1-{4-[2-(4-Benzo[1,3]dioxol-4-yl-piperazin-1-yl)-ethyl]-cyclohexyl}-3-(4-chloro-phenyl)-urea] | – | 0.158 | – | 0.00104 |
| O=S(=O)(N[C@H]1CC[C@H](CCN2CCN(c3cccc4c3OCO4)CC2)CC1)N1CCOCC1 [Example 77, Morpholine-4-sulfonic acid-trans-N-{4-[2-(4-benzo[1,3]dioxol-4-yl-piperazin-1-yl)-ethyl]-cyclohexyl}-amide] | – | 0.063 | – | 0.00129 |
| [2H]C1([2H])Oc2cccc(N3CCN(CC[C@H]4CC[C@H](NC(=O)C[C@H]5COCCO5)CC4)CC3)c2O1 [Example 78, N-trans-{4-[2-(4-Benzo(2,2-D2)-[1,3]dioxol-4-yl-piperazin-1-yl)-ethyl]-cyclohexyl}-2-(S)-[1,4]dioxan-2-yl-acetamide] | 0.0134 | 0.198 | – | – |
| [2H]C1([2H])Oc2cccc(N3CCN(CC[C@H]4CC[C@H](NC(=O)COC)CC4)CC3)c2O1 [Example 79, N-trans-{4-[2-(4-Benzo(2,2-D2) [1,3]dioxol-4-yl-piperazin-1-yl)-ethyl]-cyclohexyl}-2-methoxy-acetamide] | – | 0.146 | – | 0.00498 |
| [2H]C1([2H])Oc2cccc(N3CCN(CC[C@H]4CC[C@H](NC(=O)C(C)C)CC4)CC3)c2O1 [Example 80, N-trans-{4-[2-(4-Benzo(2,2-D2) [1,3]dioxol-4-yl-piperazin-1-yl)-ethyl]-cyclohexyl}-isobutyramide] | – | 0.105 | – | 0.00223 |
| [2H]C1([2H])Oc2cccc(N3CCN(CC[C@H]4CC[C@H](NC(=O)C(C)(C)O)CC4)CC3)c2O1 [Example 81, N-trans-{4-[2-(4-Benzo(2,2-D2)-[1,3]dioxol-4-yl-piperazin-1-yl)-ethyl]-cyclohexyl}-2-hydroxy-2-methyl-propionamide] | – | 0.0972 | – | 0.00628 |
| [2H]C1([2H])Oc2cccc(N3CCN(CC[C@H]4CC[C@H](NC(=O)[C@@H](C)OC)CC4)CC3)c2O1 [Example 82, (R)—N-trans{4-[2-(4-Benzo(2,2-D2)-[1,3]dioxol-4-yl-piperazin-1-yl)-ethyl]-cyclohexyl}-2-methoxypropanamide] | – | 0.148 | – | 0.00573 |
